Key:
[1] = Compatibility: degradation products of aspirin/carbonate blends by HPLC; type: physicochemical
Method: The degradation products of various combinations of aspirin and various carbonates were determined for different combinations of aspirin and different grades and sources of carbonates to evaluate the compatibility and stability. Milling for about fifteen minutes appeared to slightly induce the production of free salicylic acid (FSA), but not to a significant extent. […] The results are shown in Table 3 (all blend percentages are weight percentages obtained using High Performance Liquid Chromatography (HPLC))

[2] = Particle size of milled aspirin by laser diffraction (MS 2000 Hydro S); type: physicochemical
Method: Several techniques were evaluated to determine the preferred type of milling techniques for use with aspirin in accordance with the invention. All sizes were determined using Laser Diffraction on a model MS 2000 Hydro S machine. The “d50” value is the average particle size of the milled sample, and “d90” represents the average particle size of at least 90% of the particles in the milled sample. Airjet, bead, and ball mill techniques were selected as being the most preferred in the invention because of the reliability of the techniques and the particle sizes obtained. Bead milling is less preferred because of its higher relative cost. The precipitation method and crystal synthesis also yielded small particle sizes but particles prepared using these techniques tended to agglomerate.

[3] = Air Jet Mill using helium as gas jet

| SMILES | Acetyl Salicylic Salicylic Acid ASSA (%) [1] | FSA (%) (free salicylic acid) [1] | Particle size of the milled aspirin, d90 ([2]; Air Jet Mill) | Particle size of the milled aspirin, d50 [2, 3] | Particle size of the milled aspirin, d90 [2, 3] | Particle size of the milled aspirin, d50 ([2]; Crystal Synthesis, no agglomeration) | Particle size of the milled aspirin, d50 ([2]; Crystal Synthesis, with agglomeration of milled particles) | Particle size of the milled aspirin, d50 ([2]; High energy Ball Mill) | Particle size of the milled aspirin, d50 ([2]; Planetary Ball Mill) | Particle size of the milled aspirin, d50 ([2]; Precipitation Method (Solution: Ethanol + 20% ASA with 10% PVP)) |
| --- | --- | --- | --- | --- | --- | --- | --- | --- | --- | --- |
| CC(=O)Oc1ccccc1C(=O)O [100% Aspirin-Milled 15 min] | 0.00% | 0.00% |  |  |  |  |  |  |  |  |
| CC(=O)Oc1ccccc1C(=O)O [aspirin] |  |  | < 10 μm | < 2.6 μm | < 6.6 μm | d50~30 μm and no agglomeration | d50~5 to 10 μm, with agglomeration of milled particles | d50~30-40 μm | d50~40 μm | d50~5 μm |

From patent publication US20130122098A1, “Method and composition to improve absorption of therapeutic agents” (Bayer HealthCare LLC, priority 2011, published 2013)
